Experimental findings from BindingDB's records for doi:10.1016/S0960-894X(97)00247-3 (1997) are described below.

Molecules are shown by their SMILES. pIC50: −log10 of the molar value.

The first test deals with Phospholipase A2, membrane associated (group IIA). As to the kind of experiment: Compound was tested for the Inhibition of human Secretory phospholipase A 2 acyl hydrolysis using a membrane assay; Inactive.
Broadly, the pIC50 is the IC50 on a negative log10 scale, so that one unit is a factor of ten. Read a high pIC50 as a small IC50. Consider `CCCCCCCCCCCCCCCCCCOCC(CCCCO)NC(C)=O` (configuration not stated) [N-(5-Hydroxy-1-octadecyloxymethyl-pentyl)-acetamide], for which the pIC50 is < 3.70.

Molecular target in another test: not listed separately
Nature of the test: Compound was tested for the Inhibition of human Secretory phospholipase A 2 acyl hydrolysis using a membrane assay; inactive.
`CCCCCCCCCCCCCCCCCCOCC(COCC(F)(F)F)NC(C)=O` (configuration not stated) [N-[1-Octadecyloxymethyl-2-(2,2,2-trifluoro-ethoxy)-ethyl]-acetamide] gave a pIC50 of 4.00.

Consider `CCCCCCCCCCCCC(=O)NC(COCCC)COP(=O)(O)OCCO` (configuration not stated) [Phosphoric acid 2-hydroxy-ethyl ester 3-propoxy-2-tridecanoylamino-propyl ester], for which the pIC50 was 6.00.

With `CCCCCCCCCCCCCCCCCCOCC(CCCC)NC(C)=O` (configuration not stated) [N-(1-Octadecyloxymethyl-pentyl)-acetamide], the pIC50 is 4.22. This pIC50 lies 1.78 log units lower than the previous one.

In turn, `CCCCCCCCCCCCCCCCCCOCC(CC[S+](C)[O-])NC(C)=O` (configuration not stated) [N-[1-[(Octadecyloxy)methyl]-3-(methylsulfinyl)propyl]acetamide] showed a pIC50 of 4.22.

`C=CCCC(COCCCCCCCCCCCCCCCCCC)NC(C)=O` (configuration not stated) [N-(1-Octadecyloxymethyl-pent-4-enyl)-acetamide]: the pIC50 was 5.10.

For `CCCCCCCCCCCCC(=O)NC(CCCC)CCc1nnn[nH]1` (configuration not stated) [Tridecanoic acid {1-[2-(1H-tetrazol-5-yl)-ethyl]-pentyl}-amide], the pIC50 was 5.18.

Regarding `CCCCCCCCCCCCCCCCCCOCC(CCS(=O)(=O)c1ccc(C)cc1)NC(C)=O` (configuration not stated) [N-[1-Octadecyloxymethyl-3-(toluene-4-sulfonyl)-propyl]-acetamide], the pIC50 was 4.30.

`CCCCCCCCCCCCCCCCCCOCC(CCc1nnn[nH]1)NC(C)=O` (configuration not stated) [N-[1-Octadecyloxymethyl-3-(1H-tetrazol-5-yl)-propyl]-acetamide] showed a pIC50 of 6.24.

For the compound `CCCCCCCCOC[C@H](CO[P@](=O)(O)OCCN)O[P@@](=O)(O)CCCCCCC`, the pIC50 was 6.00.

`CCCCCCCCCCCCCCCCCCOCC(CCC(O)CO)NC(C)=O` (configuration not stated) [N-(4,5-Dihydroxy-1-octadecyloxymethyl-pentyl)-acetamide] had a pIC50 of 5.05.

Molecular target in another test: not listed separately
Described as above. The source holds these as a separate data set.
With `CCCCCCCCCCCCCCCCCCOCC(CCC1CO1)NC(C)=O` (configuration not stated) [N-(1-Octadecyloxymethyl-3-oxiranyl-propyl)-acetamide], the pIC50 was < 3.70.

On to `CCCCCCCCCCCCCCCCCCOCC(CC[S+]([O-])c1ccc(C)cc1)NC(C)=O` (configuration not stated) [N-{1-(Octadecyloxymethyl)-3-[(4-methylphenyl)sulfinyl]propyl}acetamide], for which the pIC50 is < 3.70.

In the case of `CCCCCCCCCCCCCCCCCCOCC(CCCO)NC(C)=O` (configuration not stated) [N-(4-Hydroxy-1-octadecyloxymethyl-butyl)-acetamide], the pIC50 was < 3.70.

Turning to `CCCCCCCCCCCCCCCCCCOCC(CCSc1ccc(C)cc1)NC(C)=O` (configuration not stated) [N-(1-Octadecyloxymethyl-3-p-tolylsulfanyl-propyl)-acetamide], the pIC50 was < 3.70.

For the compound `CCCCCCCCCCCCCCCCCCOCC(CNS(=O)(=O)c1ccc(C)cc1)NC(C)=O` (configuration not stated) [N-[1-Octadecyloxymethyl-2-(toluene-4-sulfonylamino)-ethyl]-acetamide], the pIC50 is < 3.70.

For `CCCCCCCCCCCCCCCCCCOCC(CCC(C)=O)NC(C)=O` (configuration not stated) [N-(1-Octadecyloxymethyl-4-oxo-pentyl)-acetamide], the pIC50 was < 3.70.
